Laboratory results reported in patent US7605272B2, “IGF-1R inhibitor” (Kyowa Hakko Kirin Co., Ltd., priority 2005, dated 2009).

Molecular target: T1, IGF-1R (Homo sapiens, UniProt P08069)
T1 construct: purchased Upstate Co. 14-465
Test: IGF-1R inhibitory activity (kinase reaction, time-resolved fluoroimmunoassay)
Format: biochemical
Conditions: test compound 10 μmol/L
Protocol: The IGF-1R inhibitory activity was measured in the following manner.
As IGF-1R, active recombinant enzyme (Catalog No. 14-465) purchased from Upstate Co., was used. To 96 well plate (FIA-PLATE BLACK 96 well FALT-BOTTOM HIGH BINDING, Greiner Bio-one, Catalog No. 655077) coated with NeutroAvidin (Pierce, Catalog No. 31000), biotinylated polyglutamic acid-tyrosine peptide (Nihon Schering K.K., Catalog No. 61GT0BAA) was immobilized and then blocked with 0.25% gelatin to be used as a plate for measuring the kinase reaction. Separately was prepared a solution containing at final concentrations, IGF-1R (200 μg/L), Tris.HCl(pH 7.5)(20 mmol/L), Na3VO4(0.1 mmol/L), MgCl2(1 mmol/L), MnCl2(10 mmol/L), ATP(10 mmol/L), 2-mercaptoethanol (0.04%), BSA(Bovine Serum Albumin) (0.1%), DMSO(0.1%), test compound (10 μmol/L). The solution (each 50 μL) was added to the well of the plate for measuring the kinase reaction and then, enzyme reaction was performed for 30 minutes at 24° C. The plate was washed with TBS-T [10 mmol/L Tris Cl (pH 7.5), 150 mmol/L NaCl, 0.05% Tween 20 (Bio-Rad, Catalog No. 170-6531)] 4 times, then reacted with europium-labeled anti-phosphotyrosine antibody, further washed with TBS-T 4 times and then, measured with time-resolved fluoroimmunoassay (excitation wavelength 340 nm, measuring wavelength 615 nm). The value of a well to which the test compound had not been added was considered as 100% and that of a well where the enzyme and the test compound had not been added was considered as 0%. The relative activity (%) of the well which was added with enzyme and the test compound was measured and by subtracting the calculated value from 100, IGF-1R inhibitory activity of the test compound (%) was determined.

[1] = IGF-1R active recombinant enzyme

T1 sequence (P08069 959-1367 limits assumed): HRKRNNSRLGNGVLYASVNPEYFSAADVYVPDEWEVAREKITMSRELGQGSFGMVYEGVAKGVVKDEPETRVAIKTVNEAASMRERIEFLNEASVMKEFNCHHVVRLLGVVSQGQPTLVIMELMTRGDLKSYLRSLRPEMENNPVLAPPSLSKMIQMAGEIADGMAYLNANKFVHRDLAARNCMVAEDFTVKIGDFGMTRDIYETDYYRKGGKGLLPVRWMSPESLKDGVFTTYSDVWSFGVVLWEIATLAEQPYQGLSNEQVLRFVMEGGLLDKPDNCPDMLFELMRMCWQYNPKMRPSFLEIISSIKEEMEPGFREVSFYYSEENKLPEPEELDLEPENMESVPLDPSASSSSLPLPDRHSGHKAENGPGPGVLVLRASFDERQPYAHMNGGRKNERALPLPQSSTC

Structure (SMILES) | inhibition at 10 µM [1] [%] | other results
C(=C\c1n[nH]c2ccccc12)/c1ccccc1NCc1ccccc1 [Compound 26, (E)-N-benzyl-N-{2-[2-(1H-indazol-3-yl)vinyl]phenyl}amine] | 67.8 | –
O=C(Nc1ccccc1/C=C/c1n[nH]c2ccccc12)c1cc2ccccc2o1 [Compound 49, (E)-N-{2-[2-(1H-indazol-3-yl)vinyl]phenyl}benzofuran-2-carboxamide] | 103 | –
O=C(Nc1ccccc1/C=C/c1n[nH]c2ccccc12)c1cc2ccccc2[nH]1 [Compound 50, (E)-N-{2-[2-(1H-indazol-3-yl)vinyl]phenyl}-1H-indole-2-carboxamide] | 98.5 | –
O=C(Nc1ccccc1/C=C/c1n[nH]c2ccccc12)c1ccc([N+](=O)[O-])s1 [Compound 51, (E)-N-{2-[2-(1H-indazol-3-yl)vinyl]phenyl}-5-nitrothiophene-2-carboxamide] | 100 | –
Cc1oncc1C(=O)Nc1ccccc1/C=C/c1n[nH]c2ccccc12 [Compound 72, (E)-N-{2-[2-(1H-indazol-3-yl)vinyl]phenyl}-5-methylisoxazole-4-carboxamide] | 82.7 | –
O=C(Nc1ccccc1/C=C/c1n[nH]c2ccccc12)c1ccccc1[N+](=O)[O-] [Compound 74, (E)-N-{2-[2-(1H-indazol-3-yl)vinyl]phenyl}-2-nitrobenzamide] | 97.6 | –
CN(C)/C=N/c1ccccc1C=Cc1n[nH]c2ccccc12 [Compound 75, (E)-N-{2-[2-(1H-indazol-3-yl)vinyl]phenyl}-N,N-dimethylformamidine] | – | inhibitory activity (%) at 10 μmol/L [1]: 90.4%
O=C(Nc1ccccc1/C=C/c1n[nH]c2ccccc12)c1ccc(CO)cc1 [Compound 79, (E)-4-hydroxymethyl-N-{2-[2-(1H-indazol-3-yl)vinyl]phenyl}benzamide] | 97.2 | –
O=C(Nc1ccccc1/C=C/c1n[nH]c2ccccc12)c1ccc(CN2CCOCC2)cc1 [Compound 80, (E)-N-{2-[2-(1H-indazol-3-yl)vinyl]phenyl}-4-(morpholin-4-ylmethyl)benzamide] | 96.6 | –
O=C(Nc1ccccc1/C=C/c1n[nH]c2ccccc12)c1ccc([N+](=O)[O-])cc1Cl [Compound 81, (E)-2-chloro-N-{2-[2-(1H-indazol-3-yl)vinyl]phenyl}-4-nitrobenzamide] | – | inhibition at 10 µM: 60.7%
CSc1ccc(C(=O)Nc2ccccc2/C=C/c2n[nH]c3ccccc23)cc1 [Compound 82, (E)-N-{2-[2-(1H-indazol-3-yl)vinyl]phenyl}-4-methylsulphanylbenzamide] | – | inhibition at 10 µM: 84.7%
COc1cccc(/C=C/c2n[nH]c3ccccc23)c1N [Compound 93, (E)-2-[2-(1H-indazol-3-yl)vinyl]-6-methoxyphenylamine] | – | inhibition at 10 µM: 70.6%
Cc1ccsc1C(=O)Nc1cc(C(=O)NCCO)ccc1/C=C/c1n[nH]c2ccccc12 [Compound 114, (E)-N-{5-[N-(2-hydroxyethyl)carbamoyl]-2-[2-(1H-indazol-3-yl)vinyl]phenyl}-3-methylthiophene-2-carboxamide] | – | inhibition at 10 µM: 92%
COCc1ccc(/C=C/c2n[nH]c3ccccc23)c(NC(=O)c2sccc2C)c1 [Compound 121, (E)-N-{2-[2-(1H-indazol-3-yl)vinyl]-5-(methoxymethyl)phenyl}-3-methylthiophene-2-carboxamide] | – | inhibition at 10 µM: 98.6%
Cn1cccc1C(=O)Nc1cc(C(=O)N2CCOCC2)ccc1/C=C/c1n[nH]c2ccccc12 [Compound 123, (E)-N-{2-[2-(1H-indazol-3-yl)vinyl]-5-(morpholin-4-ylcarbonyl)phenyl}-1-methylpyrrole-2-carboxamide] | – | inhibition at 10 µM: 95.9%
CCN(CC)C(=O)c1ccc(/C=C/c2n[nH]c3ccccc23)c(NC(=O)c2sccc2C)c1.Cl [Compound 124, (E)-N-{5-(N,N-diethylcarbamoyl)-2-[2-(1H-indazol-3-yl)vinyl]phenyl}-3-methylthiophene-2-carboxamide hydrochloride] | – | inhibitory activity (%) at 10 μmol/L: 98.9%
Cc1ccsc1C(=O)Nc1cc(C(=O)N(C)C)ccc1/C=C/c1n[nH]c2ccccc12.Cl [Compound 125, (E)-N-{5-(N,N-dimethylcarbamoyl)-2-[2-(1H-indazol-3-yl)vinyl]phenyl}-3-methylthiophene-2-carboxamide hydrochloride] | – | inhibitory activity (%) at 10 μmol/L: 100.9%
Cc1ccsc1C(=O)Nc1cc(C(=O)N2CCN(C)CC2)ccc1/C=C/c1n[nH]c2ccccc12 [Compound 126, (E)-N-{2-[2-(1H-indazol-3-yl)vinyl]-5-(4-methylpiperazin-1-ylcarbonyl)phenyl}-3-methylthiophene-2-carboxamide] | – | inhibition at 10 µM: 98.8%

Structure (SMILES) | inhibition at 10 µM [1] [%] | other results
COC1CCN(C(=O)c2ccc(/C=C/c3n[nH]c4ccccc34)c(NC(=O)c3sccc3C)c2)CC1.Cl [Compound 127, (E)-N-{2-[2-(1H-indazol-3-yl)vinyl]-5-(4-methoxypiperidin-1-ylcarbonyl)phenyl}-3-methylthiophene-2-carboxamide hydrochloride] | – | inhibitory activity (%) at 10 μmol/L: 101.9%
Cc1ccsc1C(=O)Nc1cc(C(=O)N2CCN(C)CC2)ccc1/C=C/c1n[nH]c2ccccc12.Cl [Compound 128, (E)-N-{2-[2-(1H-indazol-3-yl)vinyl]-5-(4-methylpiperazine-1-ylcarbonyl)phenyl}-3-methylthiophene-2-carboxamide hydrochloride] | – | inhibitory activity (%) at 10 μmol/L: 98.8%
Cc1ccsc1C(=O)Nc1cc(C(=O)N2CCC3(CC2)OCCO3)ccc1/C=C/c1n[nH]c2ccccc12.Cl [Compound 129, (E)-N-{5-(1,4-dioxa-8-azaspiro[4,5]decane-8-carbonyl)-2-[2-(1H-indazol-3-yl)vinyl]phenyl}-3-methylthiophene-2-carboxamide hydrochloride] | – | inhibitory activity (%) at 10 μmol/L: 99.9%
COc1ccccc1/C=C/c1n[nH]c2ccccc12 [Compound 135, (E)-3-[2-(2-methoxyphenyl)vinyl]-1H-indazole] | 86.6 | –
O=C(Nc1nc[nH]n1)c1ccccc1/C=C/c1n[nH]c2ccccc12 [Compound 139, (E)-2-[2-(1H-indazol-3-yl)vinyl]-N-(1H-[1,2,4]triazol-3-yl)benzamide] | 93.9 | –
Cc1csc(NC(=O)c2ccccc2/C=C/c2n[nH]c3ccccc23)n1 [Compound 143, (E)-2-[2-(1H-indazol-3-yl)vinyl]-N-(4-methylthiazol-2-yl)benzamide] | 94.9 | –
CSc1ccccc1/C=C/c1n[nH]c2ccccc12 [Compound 146, (E)-3-[2-(2-methylsulfanylphenyl)vinyl]-1H-indazole] | 78.3 | –
C(=C\c1cccc2nc(-c3cccs3)oc12)/c1n[nH]c2ccccc12 [Compound 149, (E)-7-[2-(1H-indazol-3-yl)vinyl]-2-(thiophen-2-yl)benzoxazole] | 70 | –
O=C1c2ccccc2C(=O)N1c1cccc(Cl)c1/C=C/c1n[nH]c2ccccc12 [Compound 154, (E)-2-{3-chloro-2-[2-(1H-indazol-3-yl)vinyl]phenyl}isoindole-1,3-dione] | 97.1 | –
C(=Cc1n[nH]c2ccccc12)c1ccccc1Nc1cnccn1 [Compound 155, N-{2-[2-(1H-indazol-3-yl)vinyl]phenyl}-2-pyrazylamine] | – | inhibitory activity (%) at 10 μmol/L [1]: 97.9%
Cc1cc(C(=O)Nc2ccccc2/C=C/c2n[nH]c3ccccc23)ccc1[N+](=O)[O-] [Compound 157, (E)-N-{2-[2-(1H-indazol-3-yl)vinyl]phenyl}-3-methyl-4-nitrobenzamide] | 96 | –
Cc1ccsc1/C=N/c1ccccc1C=Cc1n[nH]c2ccccc12 [Compound 160, (E)-N-{2-[2-(1H-indazol-3-yl)vinyl]phenyl}(3-methylthiophen-2-ylmethylene)amine] | 98.4 | –
C(=C\c1n[nH]c2ccccc12)/c1ccccc1-n1cccc1 [Compound 162, (E)-3-{2-[2-(pyrrol-1-yl)phenyl]vinyl}-1H-indazole] | 102 | –
C(=C\c1n[nH]c2ccccc12)/c1ccccc1Nc1ncccn1 [Compound 163, (E)-N-{2-[2-(1H-indazol-3-yl)vinyl]phenyl}-2-pyrimidylamine] | 100 | –
C(=C\c1n[nH]c2ccccc12)/c1ccccc1Nc1ccccn1 [Compound 164, (E)-N-{2-[2-(1H-indazol-3-yl)vinyl]phenyl}-2-pyridylamine] | 99.1 | –
CCOC(=O)c1cnc(Nc2ccccc2/C=C/c2n[nH]c3ccccc23)s1 [Compound 165, (E)-2-{2-[2-(1H-indazol-3-yl)vinyl]phenylamino}thiazole-5-carboxylic acid ethylester] | 93.8 | –
O=Cc1ccn(-c2ccccc2/C=C/c2n[nH]c3ccccc23)c1 [Compound 167, (E)-1-{2-[2-(1H-indazol-3-yl)vinyl]phenyl}-1H-pyrrole-3-carbaldehyde] | 94.1 | –
CCOC(=O)c1csc(Nc2ccccc2/C=C/c2n[nH]c3ccccc23)n1 [Compound 169, (E)-2-{2-[2-(1H-indazol-3-yl)vinyl]phenylamino}thiazole-4-carboxylic acid ethyl ester] | 88.4 | –
